{"source": "patent US6610703B1", "about": "“Method for treatment of glycolipid storage diseases” (G.D. Searle & Co., priority 1998, dated 2003)", "key": {"Serum Protein": {"system": "Serum Protein", "experiment": "Imino sugar (N-alkyl DNJ) binding to serum protein", "assay_type": "in vitro ADME", "conditions": "protein bound versus non-bound radioactivity (FIG. 14)", "source_text": "The percentage compound radioactivity is plotted against N-alkyl chain length (C4 to C18) with the protein bound percentage shown by open circles and the non-bound percentage shown by filled circles. […] Short chain compounds (C4-C6) bind poorly but those larger than C10 are almost completely bound to protein."}, "[1]": {"experiment": "Organ distribution of radiolabelled compound in mouse after oral gavage", "assay_type": "in vivo", "conditions": "for % recovered radioactivity, Brain / % recovered radioactivity, Liver: normal mouse, gavage; for distribution in mouse liver (deposition and clearance): oral gavage, 30, 60 and 90 minutes (FIG. 10)", "experimental": "Mouse body fluids and organs were collected for different times after gavage with radiolabelled compound. Radioactivity in each sample was determined and expressed as a percentage of radio-activity recovered. Solid bars, NN-DNJ, hatched bars, NB-DNJ.\nThe radioactivity recovered (%) is plotted against N-alkyl chain length (C4 to C18) for 30 minutes (clear bars), 60 minutes (shaded bars) and 90 minutes (filled, black bars). […] Short chain compounds (C4-C6) are rapidly cleared in a time-dependent manner. […] The C12 to C18 analogs show the reverse trend, i.e., reduced appearance in the liver but this increases with time.\nThe radioactivity recovered (%) is plotted against N-alkyl chain length (C4 to C18) for 30 minutes (clear bars), 60 minutes (shaded bars) and 90 minutes (filled, black bars).\nFIG. 12 is a series of four bar charts, A, B, C and D, in which radioactivity (cpm) found in the liver is plotted against time post gavage in hours (h) with four different N-alkyl analogs of deoxynojirimycin (DNJ). The four analogs shown are:; FIG. 12A, N-butyl(C4); FIG. 12B, N-nonyl (C9); FIG. 12C, N-dodecyl(C12); FIG. 12D, N-cis-13-octadecenyl (C18).\nFIG. 13 is a series of four bar charts, A, B, C and D, in which radioactivity (cpm) found in the brain is plotted against time post gavage in hours (h) with the same analog compounds as in FIG. 12. The four analogs shown are: FIG. 13A, N-butyl (C4); FIG. 13B, N-nonyl (C9); FIG. 13C, N-dodecyl (C12); FIG. 13D, N-cis-13-octadecenyl (C18).\nFurther evidence that longer alkyl chains are taken up much better has been obtained by in vivo studies with mouse."}, "glycolipid biosynthesis": {"system": "glycolipid biosynthesis", "conditions": "according to U.S. Pat. No. 5,472,969, cited from earlier work; for dose required / activity against glycolipid biosynthesis: unit not given"}, "[2]": {"system": "human myeloid (HL-60) cells", "experiment": "Inhibition of glycolipid biosynthesis in HL-60 cells (radiolabelled palmitic acid, TLC, scanning densitometry)", "assay_type": "cell-based", "conditions": "for times more sensitive HL-60 cells than CHO cells: HL-60 versus CHO cells", "experimental": "Cells were cultured for four days in the presence of radiolabelled palmitic acid and the following concentrations of compound:\nAfter extraction the radioactively labelled glycolipids were separated by TLC and visualized by radioautography.\nChinese Hamster Ovary (CHO) cells and human myeloid (HL-60) cells grown in the presence of varying concentrations of inhibitor in addition to a precursor (radiolabelled palmitic acid) of glycolipid biosynthesis were treated with solvents to extract the glycolipids by the procedure described by Platt et al., J. Biol. Chem. 269, 8362-8365 (1994).\nThe radiolabelled lipids were separated by TLC (FIG. 1) and bands corresponding to glucosylceramide and lactosyl-ceramide were quantitated by scanning densitometry to estimate the reduction in glycolipid biosynthesis."}, "[3]": {"target": "T1, HL-60 cell ceramide glucosyltransferase (Homo sapiens, UniProt Q16739)", "T1 construct": "endogenous in cells; host or cells: HL-60 (human myeloid) cells", "T1 sequence (Q16739 1-394)": "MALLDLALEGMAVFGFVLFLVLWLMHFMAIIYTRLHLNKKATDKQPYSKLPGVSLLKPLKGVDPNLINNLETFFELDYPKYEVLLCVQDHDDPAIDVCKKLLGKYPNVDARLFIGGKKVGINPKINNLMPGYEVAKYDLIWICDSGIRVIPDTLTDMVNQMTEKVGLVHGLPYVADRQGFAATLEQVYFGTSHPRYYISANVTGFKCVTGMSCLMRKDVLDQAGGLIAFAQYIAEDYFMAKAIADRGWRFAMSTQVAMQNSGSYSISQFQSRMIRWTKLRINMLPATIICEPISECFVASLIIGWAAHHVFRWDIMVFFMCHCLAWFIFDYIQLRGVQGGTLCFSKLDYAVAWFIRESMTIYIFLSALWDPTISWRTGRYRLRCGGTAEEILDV", "experiment": "In vitro inhibition of HL-60 cell ceramide glucosyltransferase activity", "assay_type": "biochemical", "conditions": "C4 to C18 series (FIG. 8)"}, "Hepatitis B virus (HBV)": {"system": "Hepatitis B virus (HBV)", "conditions": "Block et al., Nature Medicine 1998; cited from earlier work"}, "[4]": {"system": "CHO, MDBK and HepG2 cells", "experiment": "Cell-associated radioactivity (uptake) of radiolabelled compound in cultured cells", "assay_type": "in vitro ADME", "conditions": "MDBK and HepG2, incubated up to 24 hours"}}, "data": [{"compound": "CCCCCCCCN1CC(O)C(O)C(O)C1CO", "note": "(stereo not drawn) [C8]", "values": [{"measurement": "binding to serum protein", "setting": "Serum Protein", "result": "favor equally, protein and solution phase"}]}, {"compound": "CCCC/C=C\\CCCCCCCCCCCCN1C[C@H](O)[C@@H](O)[C@H](O)[C@H]1CO", "note": "[C18]", "values": [{"measurement": "deposition in the liver", "setting": "[1]; mouse, 24 h post gavage (FIG. 12)", "result": "significant deposition"}]}, {"compound": "CCCCN1C[C@H](O)[C@@H](O)[C@H](O)[C@H]1CO", "note": "[N-butyl-DNJ, N-butyldeoxynojirimycin, reference compound]", "values": [{"measurement": "dose required / activity against glycolipid biosynthesis", "setting": "glycolipid biosynthesis", "result": "0.01-0.1"}, {"measurement": "time after which the majority of radioactivity is found in the liver", "setting": "[1]; mouse, post gavage (FIG. 12)", "result": 1.5, "unit": "h"}, {"measurement": "% recovered radioactivity, Brain", "setting": "[1]; 30 min", "result": 0.2, "unit": "%"}, {"measurement": "% recovered radioactivity, Liver", "setting": "[1]; 30 min", "result": 8.5, "unit": "%"}, {"measurement": "% recovered radioactivity, Brain", "setting": "[1]; 60 min", "result": 0.1, "unit": "%"}, {"measurement": "% recovered radioactivity, Liver", "setting": "[1]; 60 min", "result": 2.8, "unit": "%"}, {"measurement": "% recovered radioactivity, Brain", "setting": "[1]; 90 min", "result": 0.03, "unit": "%"}, {"measurement": "% recovered radioactivity, Liver", "setting": "[1]; 90 min", "result": 0.9, "unit": "%"}, {"measurement": "times more sensitive HL-60 cells than CHO cells", "setting": "[2]", "result": "more than 10 times"}]}, {"compound": "CCCCCCCCCCN1C[C@H](O)[C@@H](O)[C@H](O)[C@H]1CO", "note": "[N-decyl-DNJ]", "values": [{"measurement": "inhibition of ceramide glucosyltransferase versus N-alkyl chain length", "setting": "[3]", "result": "optimal"}, {"measurement": "distribution in mouse liver (deposition and clearance)", "setting": "[1]", "result": "increased deposition and slower clearance"}, {"measurement": "inhibition at times lower concentrations than N-butyl-DNJ", "setting": "[2]; HL-60 cell-based assay", "result": 50, "unit": "times"}]}, {"compound": "CCCCCCN1C[C@H](O)[C@@H](O)[C@H](O)[C@H]1CO", "note": "[N-hexyl derivative of DNJ]", "values": [{"measurement": "dose required for activity against glycolipid biosynthesis", "setting": "glycolipid biosynthesis", "result": 0.2, "unit": "mg/mL"}]}, {"compound": "CN1C[C@H](O)[C@@H](O)[C@H](O)[C@H]1CO", "note": "[N-methyl analog]", "values": [{"measurement": "dose required / activity against glycolipid biosynthesis", "setting": "glycolipid biosynthesis", "result": "inactive"}]}, {"compound": "CCCCCCCCCN1C[C@H](O)[C@@H](O)[C@H](O)[C@H]1CO", "note": "[N-nonyl-DNJ, N-nonyl-1.5-dideoxy-1,5-imino-D-glucitol]", "values": [{"measurement": "binding to serum protein", "setting": "Serum Protein", "result": "favor equally, protein and solution phase"}, {"measurement": "% recovered radioactivity, Brain", "setting": "[1]; 30 min", "result": 0.4, "unit": "%"}, {"measurement": "% recovered radioactivity, Liver", "setting": "[1]; 30 min", "result": 27.1, "unit": "%"}, {"measurement": "% recovered radioactivity, Brain", "setting": "[1]; 60 min", "result": 0.3, "unit": "%"}, {"measurement": "% recovered radioactivity, Liver", "setting": "[1]; 60 min", "result": 12.6, "unit": "%"}, {"measurement": "% recovered radioactivity, Brain", "setting": "[1]; 90 min", "result": 0.4, "unit": "%"}, {"measurement": "% recovered radioactivity, Liver", "setting": "[1]; 90 min", "result": 13.5, "unit": "%"}, {"measurement": "distribution in mouse liver (deposition and clearance)", "setting": "[1]", "result": "increased deposition and slower clearance"}, {"measurement": "inhibition of Hepatitis B virus", "setting": "Hepatitis B virus (HBV)", "result": "effective as an inhibitor"}, {"measurement": "times more sensitive HL-60 cells than CHO cells", "setting": "[2]", "result": 100, "unit": "times"}, {"measurement": "increase of cell-associated radioactivity versus N-butyl-DNJ", "setting": "[4]", "result": "3.5-5 fold"}]}]}
